According to patent US8389030B2, “Nematicides from Juglandaceae and methods of use thereof” (Redox Chemicals, Inc., priority 2004, dated 2013):

How the values were obtained:
[1] = system: nematodes in roots; assay: Orange grove field trial: reduction of nematodes in plant roots vs plants in untreated soil; format: in vivo; settings: clay loam soil, compared to roots of plants in untreated soil, NatureCur applied 3 times 30 days apart at 5000 ppm, the other agents applied once in mid-May
Protocol: (§1) A field trial was conducted on an orange grove, comparing the effect of the composition described in Example 1 (under its trade name, NatureCur™) against two widely used, commercially available nematicides, an emusifiable concentrate of 1,3 dichloropropene which can be applied to the soil after plants are planted (called a “post-plant” application) (Dow AgroSciences LLC, Indianapolis, Ind.), shown on the accompanying charts as “Cordon,” and imidacloprid, an insecticide marketed under the name Admire® (Bayer CropScience LP, Research Triangle Park, N.C.). For the soil treated with Cordon and the soil treated with Admire®, single applications of the agents were made in mid-May. The product NatureCur™ was applied in once in mid-May, once 30 days later in mid-June, and once again 30 days later in mid July, each time at a concentration of 5000 ppm. The soil in the grove was a clay loam, a very dense, heavy soil in which it is difficult to get agents to travel. Thus, the soil in this grove provided a particularly difficult test condition for NatureCur™, which has to infiltrate through the soil in water.
The percentage of reduction in number of nematodes in roots of plants whose soil was treated with the three agents compared to roots of plants in untreated soil is shown in Table 2 and FIG. 2.

[2] = system: nematodes in soil; assay: Orange grove field trial: reduction of nematodes in soil vs untreated soil; format: in vivo; settings: clay loam soil, compared to untreated soil, NatureCur applied 3 times 30 days apart at 5000 ppm, the other agents applied once in mid-May
Protocol: as §1
Samples were taken of the soil around the plants and of the roots. The percentage of reduction in number of nematodes in soil treated with the three agents compared to untreated soil is shown in Table 1 and FIG. 1.

Row | SMILES | Percent reduction in nematodes in roots [1] [%] | Percent reduction in nematodes in soil [2] [%]
1 | ClC=CCCl [1,3 dichloropropene] | 61 | 58
2 | O=[N+]([O-])NC1=NCCN1Cc1ccc(Cl)nc1 [Imidacloprid, imidacloprid] | 46 | 32
